Like-named read-outs stand apart in the source and are kept apart here.
System: Fusarium graminearum
Type: cell-based
Settings: enzyme disk 119 nM where (+) enzyme, 5 days

Substance: mancozeb
- Reduction in F. graminearum growth relative to non-treated controls (Mancozeb 0.5 mg/l): 6% cd
- Reduction in F. graminearum growth relative to non-treated controls (Mancozeb 2 mg/l): 1% d
- Reduction in F. graminearum growth relative to non-treated controls (Mancozeb 5 mg/l): 17% cd
- Reduction in F. graminearum growth relative to non-treated controls (Mancozeb 10 mg/l): 26% bcd

Source: patent publication US10993436B2 (priority 2016, dated 2021)
